The text below walks through data of patent publication US20240238423A9, “TETRAHYDROISOQUINOLINE HETEROBIFUNCTIONAL BCL-XL DEGRADERS” (Treeline Biosciences, Inc., priority 2022, published 2024).

A value given as a limit tells only on which side of the number the result lay.

For the assay, the target named is T1, Human BCL-XL protein (N-terminal HiBiT tagged BCL-XL in HT1080 cells) (Homo sapiens, UniProt Q07817).
T1 construct: expressed in transfected cells; host or cells: HT-1080 (ATCC CCL-121), stably transduced with lentivirus pLV-UBC-N-HiBiT-BCL-XL-PGK-puro and selected with puromycin
T1 sequence (Q07817 whole entry): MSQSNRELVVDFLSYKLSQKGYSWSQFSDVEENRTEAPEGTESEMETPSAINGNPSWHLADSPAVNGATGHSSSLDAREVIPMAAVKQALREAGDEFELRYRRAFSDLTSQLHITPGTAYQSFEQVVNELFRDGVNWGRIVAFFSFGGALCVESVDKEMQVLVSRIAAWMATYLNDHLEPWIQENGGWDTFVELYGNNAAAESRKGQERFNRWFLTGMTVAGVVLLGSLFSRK
The experiment in a line: HiBiT based degradation assay. The assay is classed as cell-based. The conditions noted are these: HT1080 cells expressing HiBiT-BCL-XL, 24 h; for Ymin (24 h): BCL-XL degradation normalized with DMSO control; for DC50: BCL-XL degradation, read-out: EC50 (24 h). The procedure, abridged:
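This HiBiT degradation assay measured loss of BCL-XL in HT1080 cells that stably express an N-terminal HiBiT-BCL-XL fusion delivered by lentivirus. Cells were added to compound-spotted 384-well plates, and luminescence was read on a PHERAstar FSX reader. Signal was expressed relative to DMSO controls, curves were fitted by four-parameter logistic regression, and for hook-shaped curves the Ymin point served as the bottom plateau when calculating EC50.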

On to `Cc1cc(O[C@H]2CC[C@H](CCC(=O)N3CCN(c4ccc5c(C6CCC(=O)NC6=O)nn(C)c5c4)CC3)CC2)ccc1-c1ccc(N2CCc3cccc(C(=O)Nc4nc5ccccc5s4)c3C2)nc1C(=O)O` (stereo partly drawn) [Compound 251a, 6-(8-(benzo[d]thiazol-2-ylcarbamoyl)-3,4-dihydroisoquinolin-2(1H)-yl)-3-(4-(((1r,4r)-4-(3-(4-(3-(2,6-dioxopiperidin-3-yl)-1-methyl-1H-indazol-6-yl)piperazin-1-yl)-3-oxopropyl)cyclohexyl)oxy)-2-methylphenyl)picolinic acid], for which the “Ymin (24 h)” value was “A (Ymin < 50%)” and the DC50 was under 100 nM.
As for `Cc1cc(O[C@H]2CC[C@H](CCC(=O)N3CCN(c4cccc5c(C6CCC(=O)NC6=O)nn(C)c45)CC3)CC2)ccc1-c1ccc(N2CCc3cccc(C(=O)Nc4nc5ccccc5s4)c3C2)nc1C(=O)O` (stereo partly drawn) [Compound 252a, 6-(8-(benzo[d]thiazol-2-ylcarbamoyl)-3,4-dihydroisoquinolin-2(1H)-yl)-3-(4-(((1r,4r)-4-(3-(4-(3-(2,6-dioxopiperidin-3-yl)-1-methyl-1H-indazol-7-yl)piperazin-1-yl)-3-oxopropyl)cyclohexyl)oxy)-2-methylphenyl)picolinic acid], the “Ymin (24 h)” value was “A (Ymin < 50%)” and the DC50 is under 100 nM.
As to `Cc1c(O[C@H]2CC[C@H](CCC(=O)N3CCC(c4cccc5c(C6CCC(=O)NC6=O)nn(C)c45)CC3)CC2)cccc1-c1ccc(N2CCc3cccc(C(=O)Nc4nc5ccccc5s4)c3C2)nc1C(=O)O` (stereo partly drawn) [Compound 253a, 6-(8-(benzo[d]thiazol-2-ylcarbamoyl)-3,4-dihydroisoquinolin-2(1H)-yl)-3-(3-(((1r,4r)-4-(3-(4-(3-(2,6-dioxopiperidin-3-yl)-1-methyl-1H-indazol-7-yl)piperidin-1-yl)-3-oxopropyl)cyclohexyl)oxy)-2-methylphenyl)picolinic acid], the “Ymin (24 h)” value was “B (50% ≤ Ymin < 70%)” and the DC50 lay in the range of 100 to 1000 nM.
Consider `Cc1cc(O[C@H]2CC[C@H](CCCN3CCN(c4ccc5c(C6CCC(=O)NC6=O)nn(C)c5c4)CC3)CC2)ccc1-c1ccc(N2CCc3cccc(C(=O)Nc4nc5ccccc5s4)c3C2)nc1C(=O)O` (stereo partly drawn) [Compound 254a, 6-(8-(benzo[d]thiazol-2-ylcarbamoyl)-3,4-dihydroisoquinolin-2(1H)-yl)-3-(4-(((1s,4r)-4-(3-(4-(3-(2,6-dioxopiperidin-3-yl)-1-methyl-1H-indazol-6-yl)piperazin-1-yl)propyl)cyclohexyl)oxy)-2-methylphenyl)picolinic acid], for which the “Ymin (24 h)” value is recorded as “A (Ymin < 50%)” and the DC50 is under 100 nM.
On the same counts, the results for `Cc1c(OCCCC2CCN(CCN3CCC(c4ccc5c(C6CCC(=O)NC6=O)nn(C)c5c4)CC3)CC2)cccc1-c1ccc(N2CCc3cccc(C(=O)Nc4nc5ccccc5s4)c3C2)nc1C(=O)O` (stereo not drawn) [Compound 255, 6-[8-(1,3-benzothiazol-2-ylcarbamoyl)-3,4-dihydro-1H-isoquinolin-2-yl]-3-[3-[3-[1-[2-[4-[3-(2,6-dioxo-3-piperidyl)-1-methyl-indazol-6-yl]-1-piperidyl]ethyl]-4-piperidyl]propoxy]-2-methyl-phenyl]pyridine-2-carboxylic acid] are “A (Ymin < 50%)” and under 100 nM.
As to `Cc1c(OCCCC2CCN(CCN3CCC(c4cccc5c(C6CCC(=O)NC6=O)nn(C)c45)CC3)CC2)cccc1-c1ccc(N2CCc3cccc(C(=O)Nc4nc5ccccc5s4)c3C2)nc1C(=O)O` (stereo not drawn) [Compound 256, 6-[8-(1,3-benzothiazol-2-ylcarbamoyl)-3,4-dihydro-1H-isoquinolin-2-yl]-3-[3-[3-[1-[2-[4-[3-(2,6-dioxo-3-piperidyl)-1-methyl-indazol-7-yl]-1-piperidyl]ethyl]-4-piperidyl]propoxy]-2-methyl-phenyl]pyridine-2-carboxylic acid], the “Ymin (24 h)” value was “A (Ymin < 50%)” and the DC50 was under 100 nM.
